Assays:
[1] = system: C4-2 tumor xenografts; assay: Subcutaneous xenograft, curative treatment; assay type: in vivo, mice
Description: (§1) Male athymic nude Mice (Foxn1 nu/nu) (Harlan, Grannat, France) were used at the age of 7 weeks (weight 25-30 g). All procedures were performed in compliance with the European Convention for the Protection of Vertebrate Animals Used for Experimentation (animal house agreement # B-34-172-27, authorization for animal experimentation #34.324). Experiments were done at least twice for each tested condition. Animals were sacrificed before they became compromised. Xenografts were established by subcutaneously injecting 2×10^6 LNCaP cells, 2×10^6 C4-2 cells or 5×10^5 MEFs SV40 in 100 μl of a Matrigel solution. For curative experiments, tumors were allowed to growth until they were measurable with a caliper. In each group, the mice were randomized and given SCD-1 inhibitor at 80 mg/kg in 100 μl of a labrafil-DMA-tween^80 solution (89:10:1) (treated group) or vehicle alone (control group), by daily intra-peritoneal (i.p.) injection 5 days of week. For preventive experiments, the mice were treated daily for 7 days before the day of xenograft. Tumor volume measurements were taken twice to three times a week and calculated according to the formula: length×width×height×0.5236. Data are expressed as the mean tumor volume or as fold of the start point tumor volume. For survival analysis, animals bearing pre-established C4-2 tumors were treated with BZ36 at 80 mg/kg or 160 mg/kg or with vehicle by daily i.p. injection 5 days of week. All mice were monitored for survival until tumor volume had reached 2000 mm^3 or until death. Analysis of survival was conducted by a log-rank test based on the Kaplan-Meier method. At euthanasia, tumors were excised and fixed in 4% formalin for immunohistological analyses.
(§2) Immunohistochemical analysis of SCD-1 expression was performed using high-density Tissue Microarray (TMA) slide (Accumax array) with 39 prostate adenocarcinoma spots from different patients (Gleason scores from 5 to 9) with corresponding normal tissues. Immunohistochemical analysis of pcna expression was performed on […] paraffin-embedded sections of LNCaP, C4-2 of Ras SV40 MEFs tumor xenografts. Briefly, after antigen retrieval, deparaffinized sections were blocked of Fc receptors with PBS containing 5% goat serum and then incubated with corresponding anti-SCD-1 mouse antibody, 1:50 (Abcam, Paris, France) or anti-pcna mouse antibody, 1:50 (Santa Cruz) in PBS-Tween 0.1%, overnight at 4° C. […] Sections were counterstained with Mayer's hematoxylin. […] Sections were mounted in mowiol and analysed rapidly.

[2] = system: LNCaP tumor xenografts; assay: Subcutaneous xenograft, curative treatment; assay type: in vivo, mice
Description: as §1, §2

[3] = target: T1, SCD-1 (Homo sapiens, UniProt O00767); assay: Determination of SCD activity, [14C] palmitic to palmitoleic acid conversion in cells; assay type: cell-based; settings: all three cell lines (LNCaP, C4-2, PNT2), 25 μM
T1 construct: endogenous in cells; host or cells: LNCaP, C4-2, PNT2 cells
T1 sequence (O00767 1-359): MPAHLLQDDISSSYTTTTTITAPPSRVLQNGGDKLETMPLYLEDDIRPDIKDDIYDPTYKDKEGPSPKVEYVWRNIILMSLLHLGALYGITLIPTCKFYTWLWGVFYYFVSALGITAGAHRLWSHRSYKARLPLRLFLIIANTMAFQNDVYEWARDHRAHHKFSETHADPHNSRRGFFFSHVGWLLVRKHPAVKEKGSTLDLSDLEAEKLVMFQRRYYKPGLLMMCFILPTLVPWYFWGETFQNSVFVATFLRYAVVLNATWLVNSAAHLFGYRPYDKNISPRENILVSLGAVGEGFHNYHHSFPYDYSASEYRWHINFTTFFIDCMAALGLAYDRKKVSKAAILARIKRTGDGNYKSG
Description: Subconfluent LNCaP, C4-2, PNT2 of Ras SV40 MEFs cells grown in 6-wells plate were incubated with the tested inhibitor at 25 μM for 2 h in serum and fatty acid-free DMEM media supplemented 0.2% BSA. In this environment, the cells are solely dependent on endogenous fatty acid synthesis for production of storage, structural and signaling lipids. Trace amount of [^14C] palmitic acid were then added to the culture (0.5 μCi/well), and cells were incubated for 6 more hours. At the end of the incubation, total cell lipids were extracted and saponified, then released fatty acids were esterified with boron trifluoride in methanol for 90 min at 100° C. […] Air-dried plates were scanned on a Phosphorlmager and fatty acid spots on TLC were analysed with Phosphorlmager software. SCD activity was expressed as the ratio of palmitoleic on palmitic methyl ester acids and normalized to cellular DNA content.
The efficacy of the tested compound to inhibit SCD-1 activity has been evaluated by measuring the conversion of exogenous [^14C] saturated palmitic acid (16:0) to monounsaturated palmitoleic acid (16:1n-7). Moreover, the effects of inhibition of SCD-1 activity on lipid synthesis and proliferation in prostate cancer cell lines were analysed.

[4] = system: C4-2 tumors; assay: Survival analysis of mice with pre-established C4-2 tumors; assay type: in vivo; settings: for animals surviving at 14 days of treatment: control group 37.5%
Description: as §1

[5] = system: ras SV40 MEFs tumors; assay: ras SV40 MEFs xenograft, curative and preventive; assay type: in vivo, mice
Description: as §1
Immunohistochemical analysis of SCD-1 expression was performed using high-density Tissue Microarray (TMA) slide (Accumax array) with 39 prostate adenocarcinoma spots from different patients (Gleason scores from 5 to 9) with corresponding normal tissues. […] Sections were mounted in mowiol and analysed rapidly.

[6] = system: C4-2 cells; assay: Human WNT Signaling Pathway PCR Array; assay type: cell-based; settings: C4-2, 25 μM
Description: C4-2 cells treated with the compound tested at 25 μM were analysed for the expression profiles of 84 genes related to Wnt-mediated signal transduction by using Human WNT Signaling Pathway PCR Array according to the manufacturers' recommendations (Tebu-Bio, Le Perray en Yvelines, France). The relative content of cDNA samples was normalized with the endogenous β2M, HPRT1, RPL13 and GAPDH reference genes, and the relative mRNA level was calculated according to the formula 2^−(ΔCt). Values are expressed as the fold change in relative mRNA level following treatment of cells with the tested compound at 25 μM, as compared to control.

[7] = Toxicity in nude mice after daily i.p. injection; assay type: in vivo
Description: as §1, with “For survival analysis, animals bearing pre-established C4-2 tumors were treated with BZ36 at 80 mg/kg or 160 mg/kg or with vehicle by daily i.p. injection 5 days of week.” left out, “Analysis of survival was conducted by a log-rank test based on the Kaplan-Meier method. At euthanasia, tumors were excised and fixed in 4% formalin for immunohistological analyses.” left out

With `COc1ccc(Br)c(C(=O)N2CCN(c3ccc(C(=O)NCCCc4ccccc4)cn3)CC2)c1` [BZ36] the “mice with tumor volume increased more than 4-fold” value ([1]; C4-2, 80 mg/kg, 42% of vehicle-treated mice) was 12%, the “xenografted mice with tumor regression” value ([1]; C4-2, 80 mg/kg, no regression in control mice) was 19% and the “tumor volume and tumor growth rate” value ([1]; C4-2 xenograft, 80 mg/kg i.p., vs vehicle) was “significantly reduced”. For the same compound, the “decrease of proliferative tumor cells (PCNA immunostaining)” value (shortened to “decrease of proliferative tumor cells”) ([1]; C4-2 xenografts, 80 mg/kg, vs control animals) was 41%, the “tumor volume and tumor growth rate” value ([2]; LNCaP xenograft, 80 mg/kg i.p., vs vehicle) was “significantly reduced” and the “decrease of proliferative tumor cells” value ([2]; LNCaP xenografts, 80 mg/kg, vs control animals) was 50%. For the same compound, the “mice with tumor volume increased more than 4-fold” value ([2]; LNCaP, 80 mg/kg, 42% of vehicle-treated mice) was 18%, the “xenografted mice with tumor regression” value ([2]; LNCaP, 80 mg/kg, no regression in control mice) was 27% and the “labelled monounsaturated palmitoleic acid vs control cells” value [3] was “marked reduction”. For the same compound, the “animal survival in comparison to vehicle control” value ([4]; 80 mg/kg or 160 mg/kg, p=0.038) was “significant and dose-dependant prolongation”, the “animals surviving at 14 days of treatment” value ([4]; 80 mg/kg) was 75% and the median survival ([4]; 80 mg/kg, control group 14 days) was 21 days. The “animals surviving at 28 days of treatment” value ([4]; 160 mg/kg, control group 12.5%) was 75%, the “animals surviving at 14 days of treatment” value ([4]; 160 mg/kg) was 100% and the “ras SV40 MEFs tumors growth” value ([5]; curative, from day 2, maintained along 12 days, vs vehicle) was “significantly prevented”. For the same compound, the “mice with tumors five days after cells were grafted” value ([5]; pre-treatment one week prior to graft, almost all vehicle treated mice developed tumors) was 50%, the “decrease of proliferative tumor cells” value ([5]; ras SV40 MEFs xenografts, vs vehicle-treated mice) was 61% and the “expression of genes in the β-cat pathway (frizzled family, cyclin D1, D2, D3, myc, c-jun, Wnt family members)” value [6] was “decreased expression”. The “histological examination of liver and skin” value [7] was “absence of toxicity” and the “weight loss or other toxicity” value [7] was “no significant weight loss or other toxicity”.
